Assay [1] concerns the target SOS1/KRAS-G12D (Homo sapiens (Human), UniProt Q07889). Description: SOS1/KRAS-G12D binding inhibition assay (AlphaScreen). The following applies: GST-SOS1 and 6*His KRAS-G12D, read-out: KrasG12D/SOS1 binding IC50. The protocol:
Example 22: SOS1/KRAS-G12D Binding Inhibition Assay
SOS1 binding affinity of candidate compounds was measured by monitoring the interaction of SOS1 with KRAS-G12D in the presence of the test compound. Briefly, 5 nM GST tagged SOS1 proteins (final concentration) were pre-incubated with 50 nM 6*His tagged KRAS-G12D proteins (final concentration) in an assay buffer containing 10 mM HEPES, pH 7.4, 150 mM NaCl, 1 mM DTT, 5 mM MgCl2, 0.1% Tween-20, and 0.05% BSA for 30 minutes. The test compounds in 2% DMSO (final concentration) at various concentrations were then added to the reaction mixture and incubated for another 30 minutes at 4° C. 5 ug/ml GSH AlphaScreen donor beads (PerkinElmer, 6765300) and 5 ug/ml nickel chelate (Ni-NTA) AlphaScreen acceptor beads (PerkinElmer, 6760619C) (final concentrations) were then added to the mixture. After an incubation of 2 hours at 4° C., the fluorescent signals were obtained on the EnVision® 2105 Multilabel Plate Reader (PerkinElmer).
Raw AlphaScreen data were converted to a percentage of inhibition (relative to DMSO) using the following equations: • a) For a given test compound concentration X:
Signal (X)=Signal (SOS1 & KRAS-G12D & compound)-Signal (buffer & KRAS-G12D & compound)
Percentage of inhibition at concentration X=[1−Signal (X)/Signal (DMSO)]*100% b)
The IC50 values were determined by nonlinear regression of plots of [inhibitor] vs. percentage of inhibition with variable slope, analyzed using GraphPad Prism 9.

Assay [2] deals with Phospho-ERK1/2 in DLD1 cells. The assay can be described thus: Phospho-ERK1/2 expression inhibition in DLD1 cells. Format: cell-based. The following applies: Homo sapiens, DLD-1, 4 hours, read-out: DLD1 pERK IC50. The method, then: Example 23: Phospho-ERK1/2 Expression Inhibition in DLD1 Cells
DLD1 cells were obtained from American Type Culture Collection (ATCC). DLD1 cells were plated in 96-well plates (VWR #10062-900, or Corning #3904) in 90 uL culture medium at a density of 15,000 cells/well in the RPM11640 growth medium containing 10% FBS and 1% Penicillin Streptomycin, and then incubated at 37° C. overnight. The following day, the test compound was administered to the cells by using 1000×x compound stock solution prepared in DMSO at various concentrations. 1000× compound stock solution was first diluted in culturing medium to 10×, then 10 uL compound medium was added to each well in the cell plates. After administration of the compound, the cells were then incubated at 37° C. for 4 hours. Upon completion, the cells were washed with PBS briefly. 150 uL/well of 4% formaldehyde was added and the plates were incubated at room temperature for 20 mins. The cells were washed with PBS briefly, and permeabilized with 150 uL/well of ice cold 100% methanol for 10 mins. The cells were washed with PBS briefly and blocked with 100 uL/well LI-COR blocking buffer for 1 hr at room temperature with gentle shaking. The cells were incubated overnight at 4° C. with 50 uL primary antibody rabbit anti-Phospho-ERK1/2 (1: 500, Cell Signaling, #4370) diluted in Intercept Blocking Buffer (LI-COR, #927-60001) containing 0.1% Tween 20. The next day, the cells were washed with 200 uL PBS containing 0.1% Tween 20, 5×5 mins at room temperature with gentle shaking, and incubated with 50 uL secondary antibody, IRDye® 800CW Goat anti-Rabbit IgG (LI-COR, #926-32211), 1:1000, in LI-COR blocking buffer with 0.2% Tween 20 for 1 hr at room temperature with gentle shaking. The cells were washed with 200 uL PBS containing 0.1% Tween 20, 5×5 mins at room temperature with gentle shaking. The cells were washed with PBS for 5 mins. 100 uL fresh PBS was added to each well and the plates were imaged on a LI-COR Odyssey CLX plate reader.

Assay [3] has as its system K562 cells. Description: Cell growth inhibition of K562 cells (CellTiter-Glo). Format: cell-based. The note with it: Homo sapiens, 120 h, 5 days. The protocol: Example 24: Cell Growth Inhibition of K562 Cells
K562 cells were obtained from American Type Culture Collection (ATCC). For cell growth assay, K562 cells were seeded in 96-well plates at 1000 cells/well in 90 μl of RPM11640 growth medium containing 10% FBS and 1% Penicillin Streptomycin, and then incubated at 37° C. for 1 hour. The test compound was administered to the cells by using 1000× compound stock solution prepared in DMSO at various concentrations. 1000× compound stock solution was first diluted in culturing medium to 10×, then 10 uL compound medium was added to each well in the cell plates. After administration of the compound, the cells were then incubated at 37° C. for 5 days. Upon completion, the plates were equilibrated at room temperature for approximately 10 minutes. 100 ul of CellTiter-Glo® Reagent (Promega) was added to each well. The plates were then incubated at room temperature for 10 minutes and luminescence was recorded by EnSpire plate reader (PerkinElmer).
(In ATP-based viability assays light output follows the ATP content of the culture.)

The values that follow come from patent publication US20240208909A1, “SUBSTITUTED QUINOLINE DERIVATIVES HAVING SOS1 INHIBITION ACTIVITIES AND USES THEREOF” (Accutar Biotechnology Inc., priority 2022, published 2024).

Some results are limits rather than exact numbers.

For orientation: GI50 means the concentration at which growth is held to half of that of the control. Low readings indicate more potent growth inhibition, high ones less potent growth inhibition.

Chain of SOS1/KRAS-G12D (Q07889 564-1049 limits assumed): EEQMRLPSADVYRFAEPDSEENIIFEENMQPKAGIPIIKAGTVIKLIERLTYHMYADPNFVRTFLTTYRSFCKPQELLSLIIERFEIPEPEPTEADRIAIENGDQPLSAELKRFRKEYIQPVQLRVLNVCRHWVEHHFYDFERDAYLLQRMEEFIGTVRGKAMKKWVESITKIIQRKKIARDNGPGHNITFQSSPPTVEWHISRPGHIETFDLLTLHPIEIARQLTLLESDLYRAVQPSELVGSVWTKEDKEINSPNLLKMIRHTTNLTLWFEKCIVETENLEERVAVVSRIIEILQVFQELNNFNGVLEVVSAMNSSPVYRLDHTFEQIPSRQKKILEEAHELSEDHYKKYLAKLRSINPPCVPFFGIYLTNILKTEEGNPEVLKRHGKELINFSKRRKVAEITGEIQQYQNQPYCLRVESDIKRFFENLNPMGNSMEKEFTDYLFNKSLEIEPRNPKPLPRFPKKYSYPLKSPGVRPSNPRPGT

Consider `Cc1c([C@@H](C)Nc2ccnc3ccc(N4CCC5(CCN(C)C5=O)CC4)cc23)cccc1C(F)(F)F` [Compound 23, (R)-2-methyl-8-(4-((1-(2-methyl-3-(trifluoromethyl)phenyl)ethyl)amino)quinolin-6-yl)-2,8-diazaspiro[4.5]decan-1-one], for which the IC50 in assay [1] is 10 to 100 nM; in assay [2] it was > 500 nM. This molecule also returned a GI50 in assay [3] of 100 to 500 nM.
For `Cc1c([C@@H](C)Nc2ccnc3ccc(N4CCN(c5cnn(C)c5)CC4)cc23)cccc1C(F)(F)F` [Compound 24, (R)-6-(4-(1-methyl-1H-pyrazol-4-yl)piperazin-1-yl)-N-(1-(2-methyl-3-(trifluoromethyl)phenyl)ethyl)quinolin-4-amine], the results for the IC50 in assay [1] and in assay [2] were > 100 nM and > 500 nM, respectively. In assay [3], the GI50 is 100 to 500 nM.
Turning to `Cc1c([C@@H](C)Nc2ccnc3ccc(N4CCn5ncnc5C4)cc23)cccc1C(F)(F)F` [Compound 25, (R)-6-(5,6-dihydro-[1,2,4]triazolo[1,5-a]pyrazin-7(8H)-yl)-N-(1-(2-methyl-3-(trifluoromethyl)phenyl)ethyl)quinolin-4-amine], the results for the IC50 in assay [1] and in assay [2] were > 100 nM and 150 to 500 nM, respectively. In addition, in assay [3], the GI50 fell in the range of 100 to 500 nM.
Regarding `Cc1c([C@@H](C)Nc2ccnc3ccc(N4CCN(C(=O)C5CC5)CC4)cc23)cccc1C(F)(F)F` [Compound 26, (R)-cyclopropyl(4-(4-((1-(2-methyl-3-(trifluoromethyl)phenyl)ethyl)amino)quinolin-6-yl)piperazin-1-yl)methanone], the values for the IC50 in assay [1] and in assay [2] were 10 to 100 nM and > 500 nM, respectively. Further, the GI50 in assay [3] was in the range of 100 to 500 nM.
For the molecule `CC(=O)N1CCN(c2ccc3nccc(N[C@H](C)c4cccc(C(F)(F)F)c4C)c3c2)CC1` [Compound 27, (R)-1-(4-(4-((1-(2-methyl-3-(trifluoromethyl)phenyl)ethyl)amino)quinolin-6-yl)piperazin-1-yl)ethan-1-one], the IC50 in assay [1] is 10 to 100 nM; in assay [2], > 500 nM. In addition, the GI50 in assay [3] was > 500 nM.
`CNC1CCN(c2ccc3nccc(N[C@H](C)c4cccc(C(F)(F)F)c4C)c3c2)CC1` [Compound 28, (R)-N-(1-(2-methyl-3-(trifluoromethyl)phenyl)ethyl)-6-(4-(methylamino)piperidin-1-yl)quinolin-4-amine]: the IC50 was 10 to 100 nM in assay [1] and > 500 nM in assay [2]. Besides, in assay [3], the GI50 was > 500 nM.
On to `Cc1c([C@@H](C)Nc2ccnc3ccc(N4CCN(C(=O)C5COC5)CC4)cc23)cccc1C(F)(F)F` [Compound 29, (R)-(4-(4-((1-(2-methyl-3-(trifluoromethyl)phenyl)ethyl)amino)quinolin-6-yl)piperazin-1-yl)(oxetan-3-yl)methanone], for which the IC50 in assay [1] was 10 to 100 nM; in assay [2] it was > 500 nM. In assay [3], this molecule registered a GI50 of 100 to 500 nM.
In the case of `C[C@@H](Nc1ccnc2c(F)cc(N3CC[C@@H](N)C3)cc12)c1cccc(C(F)F)c1F` [Compound 30, 6-((R)-3-aminopyrrolidin-1-yl)-N-((R)-1-(3-(difluoromethyl)-2-fluorophenyl)ethyl)-8-fluoroquinolin-4-amine], the IC50 in assay [1] was 10 to 100 nM; in assay [2], > 500 nM. The molecule further gave a GI50 in assay [3] of 100 to 500 nM.
Turning to `C[C@@H](Nc1ccnc2ccc(N3CC[C@@H](N(C)C)C3)cc12)c1cccc(C(F)F)c1F` [Compound 31, N-((R)-1-(3-(difluoromethyl)-2-fluorophenyl)ethyl)-6-((R)-3-(dimethylamino)pyrrolidin-1-yl)quinolin-4-amine], the IC50 in assay [1] is ≤ 10 nM; in assay [2] it was > 500 nM. Besides, the GI50 in assay [3] is ≤ 100 nM.
`Cc1c([C@@H](C)Nc2ccnc3ccc(N4CCC(N(C)C)CC4)cc23)cccc1C(F)(F)F` [Compound 32, (R)-6-(4-(dimethylamino)piperidin-1-yl)-N-(1-(2-methyl-3-(trifluoromethyl)phenyl)ethyl)quinolin-4-amine]: the IC50 in assay [1] is 10 to 100 nM; in assay [2], > 500 nM. Further, in assay [3], the 50% growth inhibitory concentration (GI50) lay in the range of 100 to 500 nM.
Taken in the same sequence, the figures for `CC(=O)N1CCN(c2ccc3nccc(N[C@H](C)c4cccc(C(F)(F)F)c4C)c3c2)C[C@@H]1C` [Compound 33, 1-((S)-2-methyl-4-(4-(((R)-1-(2-methyl-3-(trifluoromethyl)phenyl)ethyl)amino)quinolin-6-yl)piperazin-1-yl)ethan-1-one] were > 100 nM, > 500 nM and 100 to 500 nM.
Turning to `Cc1c([C@@H](C)Nc2ccnc3ccc(N4CCN(c5nccs5)CC4)cc23)cccc1C(F)(F)F` [Compound 34, (R)-N-(1-(2-methyl-3-(trifluoromethyl)phenyl)ethyl)-6-(4-(thiazol-2-yl)piperazin-1-yl)quinolin-4-amine], the IC50 in assay [1] is > 100 nM; in assay [2] it was > 500 nM. This molecule also gave a GI50 in assay [3] of 100 to 500 nM.
In the same order, the values of `Cc1c([C@@H](C)Nc2ccnc3ccc(N4CCNC(C)(C)C4)cc23)cccc1C(F)(F)F` [Compound 35] are 10 to 100 nM, > 500 nM and 100 to 500 nM.
In the same order, the values of `CC(=O)N1CCN(c2ccc3nccc(N[C@H](C)c4cccc(C(F)(F)F)c4C)c3c2)CC1(C)C` [Compound 36, (R)-1-(2,2-dimethyl-4-(4-((1-(2-methyl-3-(trifluoromethyl)phenyl)ethyl)amino)quinolin-6-yl)piperazin-1-yl)ethan-1-one] are 10 to 100 nM, > 500 nM and 100 to 500 nM.
Turning to `CC(=O)N[C@@H]1CCN(c2ccc3nccc(N[C@H](C)c4cccc(C(F)(F)F)c4C)c3c2)C1` [Compound 38, N-((R)-1-(4-(((R)-1-(2-methyl-3-(trifluoromethyl)phenyl)ethyl)amino)quinolin-6-yl)pyrrolidin-3-yl)acetamide], the IC50 in assay [1] was > 100 nM; in assay [2], > 500 nM. Besides, in assay [3], the GI50 was > 500 nM.
As for `CC(=O)N[C@H]1CCN(c2ccc3nccc(N[C@H](C)c4cccc(C(F)(F)F)c4C)c3c2)C1` [Compound 39, N-((S)-1-(4-(((R)-1-(2-methyl-3-(trifluoromethyl)phenyl)ethyl)amino)quinolin-6-yl)pyrrolidin-3-yl)acetamide], the IC50 in assay [1] is > 100 nM; in assay [2] it was > 500 nM. Further, the GI50 in assay [3] is > 500 nM.
For the molecule `CC(=O)N1CCC(O)(c2ccc3nccc(N[C@H](C)c4cccc(C(F)F)c4F)c3c2)CC1` [Compound 40, (R)-1-(4-(4-((1-(3-(difluoromethyl)-2-fluorophenyl)ethyl)amino)quinolin-6-yl)-4-hydroxypiperidin-1-yl)ethan-1-one], the figures for the IC50 in assay [1] and in assay [2] were ≤ 10 nM and 150 to 500 nM, respectively. In assay [3], the GI50 was ≤ 100 nM.
